Reference: EP2396329B1, “COMPOUNDS FOR THE TREATMENT OF HEPATITIS C” (priority 2009, dated 2010)
Where two headings read alike, the source gives them in different places.

Key:
[1] = tested on: HCV replicon; assay: HCV replicon assay (FRET or luciferase readout); assay type: cell-based
From the text: FRET Assay Preparation. To perform the HCV FRET screening assay, 96-well cell culture plates were used. The FRET peptide (Anaspec, Inc.) (Taliani et al., Anal. Biochem. 1996, 240, 60-67) contains a fluorescence donor, EDANS, near one end of the peptide and an acceptor, DABCYL, near the other end. The fluorescence of the peptide is quenched by […] resonance energy transfer (RET) between the donor and the acceptor, but as the NS3 protease cleaves the peptide the products are released from RET quenching and the fluorescence of the donor becomes apparent. The assay reagent was made as follows: 5X cell Luciferase cell culture lysis reagent from Promega (#E153A) diluted to 1X with dH2O, NaCl added to 150 mM final, the FRET peptide diluted to 20 µM final from a 2 mM stock.
To prepare plates, HCV replicon cells, with or without a Renilla luciferase reporter gene, were trypsinized and placed into each well of a 96-well plate with titrated test compounds added in columns 3 through 12; columns 1 and 2 contained a control compound (HCV protease inhibitor), and the bottom row contained cells without compound. The plates were then placed in a CO2 incubator at 37 °C.
Assays. Subsequent to addition of the test compounds described above (FRET Assay Preparation), at various times the plate was removed and Alamar blue solution (Trek Diagnostics, #00-100) was added per well as a measure of cellular toxicity. After reading in a Cytoflour 4000 instrument (PE Biosystems), plates were rinsed with PBS and then used for FRET assay by the addition of 30 ul of the FRET peptide assay reagent described above (FRET Assay Preparation) per well. The plate was then placed into the Cytoflour 4000 instrument which had been set to 340 excite/490 emission, automatic mode for 20 cycles and the plate read in a kinetic mode. Typically, the signal to noise using an endpoint analysis after the reads was at least three-fold. Alternatively, after Alamar blue reading, plates were rinsed with PBS, 50 ul of DMEM (high glucose) without phenol red was added and plates were then used for luciferase assay using the Promega Dual-Glo Luciferase Assay System.
Compound analysis was determined by quantification of the relative HCV replicon inhibition and the relative cytotoxicity values. To calculate cytoxicity values, the average Alamar Blue fluorescence signals from the control wells were set as 100% non-toxic. The individual signals in each of the compound test wells were then divided by the average control signal and multiplied by 100% to determine […]. To calculate the HCV replicon inhibition values, an average background value was obtained from the two wells containing the highest amount of HCV protease inhibitor at the end of the assay period. These numbers were similar to those obtained from naïve Huh-7 cells.
The background numbers were then subtracted from the average signal obtained from the control wells and this number was used as 100% activity. The individual signals in each of the compound test wells were then divided by the averaged control values after background subtraction and multiplied by 100% to determine percent activity. EC50 values for a protease inhibitor titration were calculated as the concentration which caused a 50% reduction in FRET or luciferase activity. The two numbers generated for the compound plate, percent cytoxicity and percent activity were used to determine compounds of interest for further analysis.

[2] = target: T1, HCV NS5B (Hepatitis C virus genotype 1b, UniProt Q9WMX2); assay: HCV NS5B RdRp enzyme assay (standard or modified); assay type: biochemical
T1 construct: The protein was expressed with an 18 amino acid C-terminal truncation to enhance the solubility; made in house; host or cells: E. coli BL21(DE3)
Experimental: HCV NS5B RdRp cloning, expression, and purification. The cDNA encoding the NS5B protein of HCV, genotype 1b, was cloned into the pET21a expression vector. The protein was expressed with an 18 amino acid C-terminal truncation to enhance the solubility. The E. coli competent cell line BL21(DE3) was used for expression of the protein. Cultures were grown at 37 °C for ~ 4 hours until the cultures reached an optical density of 2.0 at 600 nm. The cultures were cooled to 20 °C and induced with I mM IPTG. Fresh ampicillin was added to a final concentration of 50 µg/ml and the cells were grown overnight at 20 °C.
Cell pellets (3L) were lysed for purification to yield 15-24 mgs of purified NS5B. The lysis buffer consisted of 20 mM Tris-HCl, pH 7.4, 500 mM NaCl, 0.5% triton X-100, 1 mM DTT, 1mM EDTA, 20% glycerol, 0.5 mg/ml lysozyme, 10 mM MgCl2, 15 ug/ml deoxyribonuclease I, and Complete TM protease inhibitor tablets (Roche). After addition of the lysis buffer, frozen cell pellets were resuspended using a tissue homogenizer. To reduce the viscosity of the sample, aliquots of the lysate were sonicated on ice using a microtip attached to a Branson sonicator. The sonicated lysate was centrifuged at 100,000 x g for 1hr at 4 °C and filtered through a 0.2 µm filter unit (Corning).
The protein was purified using three sequential chromatography steps: Heparin sepharose CL-6B, polyU sepharose 4B, and Hitrap SP sepharose (Pharmacia). The chromatography buffers were identical to the lysis buffer but contained no lysozyme, deoxyribonuclease I, MgCl2 or protease inhibitor and the NaCl concentration of the buffer was adjusted according to the requirements for charging the protein onto the column. Each column was eluted with a NaCl gradient which varied in length from 5-50 column volumes depending on the column type. After the final chromatography step, the resulting purity of the enzyme is >90% based on SDS-PAGE analysis. The enzyme was aliquoted and stored at -80 °C.
Standard HCV NS5B RdRp enzyme assay. HCV RdRp genotype 1b assays were run in a final volume of 60 µl in 96 well plates (Costar 3912). The assay buffer is composed of 20 mM Hepes, pH 7.5, 2.5 mM KCI, 2.5 mM MgCl2, 1 mM DTT, 1.6 U RNAse inhibitor (Promega N2515), 0.1 mg/ml BSA (Promega R3961), and 2 % glycerol. All compounds were serially diluted (3-fold) in DMSO and diluted further in water such that the final concentration of DMSO in the assay was 2%. HCV RdRp genotype Ib enzyme was used at a final concentration of 28 nM. A polyA template was used at.6 nM, and a biotinylated oligo-dT12 primer was used at 180 nM final concentration. Template was obtained commercially (Amersham 27-4110). Biotinylated primer was prepared by Sigma Genosys. 3H-UTP was used at 0.6 µCi (0.29 µM total UTP). Reactions were initiated by the addition of enzyme, incubated at 30 °C for 60 min, and stopped by adding 25 µl of 50 mM EDTA containing SPA beads (4 µg/µl, Amersham RPNQ 0007). Plates were read on a Packard Top Count NXT after > 1hr incubation at room temperature.
Modified HCV NS5B RdRp enzyme assay. A modified enzyme assay was performed essentially as described for the standard enzyme assay except for the following: The biotinylated oligo dT12 primer was precaptured on streptavidin-coated SPA beads by mixing primer and beads in assay buffer and incubating at room temperature for one hour. Unbound primer was removed after centrifugation. The primer-bound beads were resuspended in 20 mM Hepes buffer, pH 7.5 and used in the assay at final concentrations of 20 nM primer and 0.67 µg/µl beads. Order of addition in the assay: enzyme (14 nM) was added to diluted compound followed by the addition of a mixture of template (0.2 nM), 3H-UTP (0.6 µCi, 0.29 µM), and primer-bound beads, to initiate the reaction; concentrations given are final. Reactions were allowed to proceed for 4 hours at 30° C.
IC50 values for compounds were determined using seven different [I]. […]

[3] = Hepatitis C virus, HCV replicon cells, FRET or luciferase activity, read-out: EC50
[4] = HCV NS5B RdRp enzyme, genotype 1b, read-out: IC50

T1 sequence (Q9WMX2 2420-2992): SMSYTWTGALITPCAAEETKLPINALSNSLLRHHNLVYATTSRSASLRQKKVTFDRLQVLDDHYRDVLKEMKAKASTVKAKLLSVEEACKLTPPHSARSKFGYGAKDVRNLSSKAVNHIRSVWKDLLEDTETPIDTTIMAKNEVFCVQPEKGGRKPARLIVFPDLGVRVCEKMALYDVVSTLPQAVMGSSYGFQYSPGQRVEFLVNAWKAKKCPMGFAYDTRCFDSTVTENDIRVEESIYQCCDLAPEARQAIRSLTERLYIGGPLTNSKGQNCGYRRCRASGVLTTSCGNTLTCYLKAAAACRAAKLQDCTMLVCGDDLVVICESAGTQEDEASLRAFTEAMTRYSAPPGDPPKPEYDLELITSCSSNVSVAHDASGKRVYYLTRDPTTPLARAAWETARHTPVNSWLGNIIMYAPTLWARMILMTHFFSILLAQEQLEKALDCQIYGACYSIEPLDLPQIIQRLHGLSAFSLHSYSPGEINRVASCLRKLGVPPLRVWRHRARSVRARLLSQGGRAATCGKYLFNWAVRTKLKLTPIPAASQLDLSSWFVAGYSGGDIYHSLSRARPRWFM

| SMILES | EC50 [1, 3] | IC50 [2, 4] | EC50 ([1]; Hepatitis C virus) | IC50 [2] | further results |
| --- | --- | --- | --- | --- | --- |
| CCn1nc(C)c(C2=Cc3cc(OC)ccc3-c3c(C4CCCCC4)c4ccc(C(=O)NS(=O)(=O)C(C)C)cc4n3C2)c1C(=O)N1C[C@@H](C)O[C@H](C)C1 | 1 to 500 nM | 1 to 500 nM | – | – | – |
| CCn1nc(C)c(C2=Cc3cc(OC)ccc3-c3c(C4CCCCC4)c4ccc(C(=O)NS(=O)(=O)C(C)C)cc4n3C2)c1C(=O)N1CCN(C)CC1 | 1 to 500 nM | 1 to 500 nM | – | – | – |
| CCn1nc(C)c(C2=Cc3cc(OC)ccc3-c3c(C4CCCCC4)c4ccc(C(=O)NS(=O)(=O)C(C)C)cc4n3C2)c1C(=O)N1C[C@@H](C)N(C)[C@@H](C)C1 | 1 to 500 nM | 1 to 500 nM | – | – | – |
| CCn1ncc(C(=O)N2C3CCCC2COC3)c1C1=Cc2cc(OC)ccc2-c2c(C3CCCCC3)c3ccc(C(=O)NS(=O)(=O)C(C)C)cc3n2C1 | – | – | 1 to 500 nM | – | – |
| CCn1ncc(C(=O)N2C[C@@H](C)N(C)[C@@H](C)C2)c1C1=Cc2cc(OC)ccc2-c2c(C3CCCCC3)c3ccc(C(=O)NS(=O)(=O)C(C)C)cc3n2C1 | 1 to 500 nM | 1 to 500 nM | – | – | – |
| CCn1ncc(C(=O)N2C3CCC2CN(C)C3)c1C1=Cc2cc(OC)ccc2-c2c(C3CCCCC3)c3ccc(C(=O)NS(=O)(=O)C(C)C)cc3n2C1 | – | – | 1 to 500 nM | 1 to 500 nM | – |
| COc1ccc2c(c1)C=C(c1c(C(=O)N3CC4CCC(C3)O4)cnn1CC(F)(F)F)Cn1c-2c(C2CCCCC2)c2ccc(C(=O)NS(=O)(=O)C(C)C)cc21 | – | – | 1 to 500 nM | 1 to 500 nM | – |
| COc1ccc2c(c1)C=C(c1c(C(=O)N3C4COCC3COC4)cnn1CC(F)(F)F)Cn1c-2c(C2CCCCC2)c2ccc(C(=O)NS(=O)(=O)C(C)C)cc21 | – | – | 1 to 500 nM | 1 to 500 nM | – |
| COc1ccc2c(c1)C=C(c1c(C(=O)N3CC4CC3CO4)cnn1CC(F)(F)F)Cn1c-2c(C2CCCCC2)c2ccc(C(=O)NS(=O)(=O)C(C)C)cc21 (centres unmarked) | – | 1 to 500 nM | 1 to 500 nM | – | – |
| COc1ccc2c(c1)C=C(c1c(C(=O)N3CCN(C)CC3)cnn1CC(F)(F)F)Cn1c-2c(C2CCCCC2)c2ccc(C(=O)NS(=O)(=O)C(C)C)cc21 | 1 to 500 nM | 1 to 500 nM | – | – | – |
| COc1ccc2c(c1)C=C(c1c(C(=O)N3C4CCCC3COC4)cnn1C(C)C)Cn1c-2c(C2CCCCC2)c2ccc(C(=O)NS(=O)(=O)C(C)C)cc21 | – | – | 1 to 500 nM | 1 to 500 nM | – |
| COc1ccc2c(c1)C=C(c1c(C(=O)N3CC4CC3CO4)cnn1C(C)C)Cn1c-2c(C2CCCCC2)c2ccc(C(=O)NS(=O)(=O)C(C)C)cc21 (centres unmarked) | – | 1 to 500 nM | 1 to 500 nM | – | – |
| COc1ccc2c(c1)C=C(c1c(C(=O)N3CCN(C)CC3)cnn1C(C)C)Cn1c-2c(C2CCCCC2)c2ccc(C(=O)NS(=O)(=O)C(C)C)cc21 | 1 to 500 nM | 1 to 500 nM | – | – | – |
| COc1ccc2c(c1)C=C(c1c(C(=O)N3CC4CCC(C3)O4)c(C)nn1C(C)C)Cn1c-2c(C2CCCCC2)c2ccc(C(=O)NS(=O)(=O)C(C)C)cc21 | – | – | 1 to 500 nM | – | – |
| COc1ccc2c(c1)C=C(c1c(C(=O)N3C4CCC3CN(C)C4)c(C)nn1C(C)C)Cn1c-2c(C2CCCCC2)c2ccc(C(=O)NS(=O)(=O)C(C)C)cc21 | – | – | 1 to 500 nM | 1 to 500 nM | – |
| CCn1nc(C)c(C(=O)N2C3CCC2CN(C)C3)c1C1=Cc2cc(OC)ccc2-c2c(C3CCCCC3)c3ccc(C(=O)NS(=O)(=O)C(C)C)cc3n2C1 | – | – | 1 to 500 nM | 1 to 500 nM | – |
| CCn1nc(C)c(C(=O)N2C[C@@H](C)N(C)[C@@H](C)C2)c1C1=Cc2cc(OC)ccc2-c2c(C3CCCCC3)c3ccc(C(=O)NS(=O)(=O)C(C)C)cc3n2C1 | 1 to 500 nM | – | – | – | – |
| CCn1ncc(C(=O)N2CC3CCC(C2)O3)c1C1=Cc2cc(OC)ccc2-c2c(C3CCCCC3)c3ccc(C(=O)NS(=O)(=O)C(C)C)cc3n2C1 | – | – | 1 to 500 nM | – | – |
| CCn1ncc(C(=O)N2CC3CCC(C2)N3C)c1C1=Cc2cc(OC)ccc2-c2c(C3CCCCC3)c3ccc(C(=O)NS(=O)(=O)C(C)C)cc3n2C1 | – | – | 1 to 500 nM | 1 to 500 nM | – |
| CCn1nc(C)c(C(=O)N2CC3CCC(C2)N3C)c1C1=Cc2cc(OC)ccc2-c2c(C3CCCCC3)c3ccc(C(=O)NS(=O)(=O)C(C)C)cc3n2C1 | – | – | 1 to 500 nM | – | – |
| CCn1nc(C)c(C(=O)N2C3CCCC2COC3)c1C1=Cc2cc(OC)ccc2-c2c(C3CCCCC3)c3ccc(C(=O)NS(=O)(=O)C(C)C)cc3n2C1 | – | – | 1 to 500 nM | 1 to 500 nM | – |
| CCn1nc(C)c(C(=O)N2CCO[C@H](COC)C2)c1C1=Cc2cc(OC)ccc2-c2c(C3CCCCC3)c3ccc(C(=O)NS(=O)(=O)C(C)C)cc3n2C1 | 1 to 500 nM | – | – | – | – |
| COc1ccc2c(c1)C=C(c1c(C(=O)N3C4CCC3CN(C)C4)ncn1C(C)C)Cn1c-2c(C2CCCCC2)c2ccc(C(=O)NS(=O)(=O)C(C)C)cc21 | – | – | 1 to 500 nM | 1 to 500 nM | – |
| COc1ccc2c(c1)C=C(c1c(C(=O)N3C4CCC3CN(C)C4)nnn1C(C)C)Cn1c-2c(C2CCCCC2)c2ccc(C(=O)NS(=O)(=O)N(C)C)cc21 | – | – | 1 to 500 nM | 1 to 500 nM | – |
| COc1ccc2c(c1)C=C(c1nn(C(C)C)c(C)c1C(=O)N1C[C@@H](C)O[C@@H](C)C1)Cn1c-2c(C2CCCCC2)c2ccc(C(=O)NS(=O)(=O)C(C)C)cc21 [drawing 151] | 1 to 500 nM | – | – | – | – |
| COc1ccc2c(c1)C=C(c1nn(C(C)C)c(C)c1C(=O)N1C[C@@H](C)O[C@@H](C)C1)Cn1c-2c(C2CCCCC2)c2ccc(C(=O)NS(=O)(=O)C(C)C)cc21 [drawing 156] | – | – | – | – | EC50 ([1]; HCV replicon cells, FRET or luciferase activity, read-out: EC50): 1 to 500 nM |
